Consider two compounds from patent publication US9927437B2, “Treating neurodegenerative disease” (THE BRIGHAM AND WOMEN'S HOSPITAL, INC., priority 2013, dated 2018).

The experiment has as its system T cells. Nature of the experiment: T-cell response in EAE mice (recall proliferation, cytokines, polarization). Format: in vivo, mouse. On the procedure: FIGS. 9a-d. Depletion of reactive astrocytes reduces the recruitment of peripheral leukocytes to the CNS. (a-d). EAE was induced in WT or GFAP^TK F1 hybrid mice and Ganciclovir (GCV) or vehicle control (PBS) was administered as in FIG. 1b. Data are representative of three independent experiments with n≥7 mice/group (means and s.e.m.). (a) Effect of GCV administration on reactive astrocytes detected by GFAP staining (b) Recruitment of monocytes (red gate) and lymphocytes (green gate) to the CNS assessed by FACS. Data are representative of three independent experiments. Statistical analysis by Student's t-test. (c, d) Effect of the depletion of reactive astrocytes during the chronic phase of EAE on the recall proliferative response to MOG(35-55) or anti-CD3 (c) and the expression of IFN-γ, IL-17A, Foxp3 and IL-10 in splenic CD4+ T cells (d). *P<0.05, and (n.s) not significant.
FIGS. 12a-i. […] (a) Naïve C57BL/6 (Left panel) and NOD (right panel) mice were treated with LacCer (10 μg per mouse) or vehicle as indicated by red arrows, and EAE clinical scores was recorded. At experimental end point (day 25), astrocytes were isolated and their transcriptional profile was determined by nCounter Nanostring analysis. (b-e) EAE was induced in C57BL/6 (b, c) or NOD mice (d, e) and LacCer or vehicle were administrated as in FIGS. 1g and 1h, respectively. Splenic T-cell recall response to MOG(35-55) (20 μg/ml); proliferation (b, d) and secretion of IL-17A, IFN-γ and IL-10 cytokines (c, e). Data are representative of two independent experiments with ≥8 mice/group (mean and s.e.m.). (f-i) EAE NOD mice were treated with PDMP or vehicle during the chronic phase as in FIG. 1K. Data are representative of three independent experiments with n≥8 mice/group (mean and s.e.m.). (f) qPCR analysis of the expression of tbx21, ifng, rorc, il17A, csf2, il10, foxp3, and tgfb1 mRNA of CD3^+CD4^+ T-cells isolated from the CNS; expression is presented relative to gapdh. (g, h) Recall response to MOG(35-55) (20 μg/ml); proliferation (g) and secretion of IL-17A, IFN-γ and IL-10 cytokines (h). (i) Expression of IFN-γ, IL-17A, Foxp3 and IL-10 by splenic CD3^+CD4^+ T cells (mean and s.e.m.).
Splenocytes and lymph node cells were cultured in X-VIVO medium and were plated for 72 h at a density of 5×10^5 cells per well in the presence of MOG35-55 peptide. During the final 16 h, cells were pulsed with […] [3H]thymidine (PerkinElmer), followed by collection on glass fiber filters and analysis of incorporated [3H]thymidine in a-counter (1450 MicroBeta TriLux; PerkinElmer). Supernatants were collect after 48 h of culture for cytokine measurement by enzyme-linked immunosorbent assay^14. For intracellular cytokine staining, cells were stimulated for 6 h with PMA (phorbol 12-myristate 13-acetate; 50 ng/ml; Sigma), ionomycin (1 μg/ml; Sigma) and monensin (GolgiStop; […]; BD Biosciences). After staining of surface markers, cells were fixed and made permeable according to the manufacturer's instructions BD Cytofix/Cytoperm™ Kit (BD Biosciences), or Foxp3 Fixation/Permeabilization (Ebiosceince).

In the case of `CCCCCCCCCC(=O)N[C@H](CN1CCOCC1)[C@H](O)c1ccccc1` [PDMP, D-threo-1-phenyl-2-decanoylamino-3-morpholino-1-propanol], where the note is “NOD EAE, PDMP-treated mice, chronic phase”, the T-cell response result was “No significant changes”.

For lactosylceramide [LacCer], where the note is “C57BL/6 and NOD EAE after LacCer administration”, the T-cell response entry is given as “not linked to changes in the T-cell response”.
